Measurements as given in patent EP1488698A1, “Compositions for descreasing intracellular inositol trisphosphate concentration and uses thereof” (priority 1995, dated 1997).
Values joined by “and” are separate entries in the source; they are usually repeats but may differ in a detail not shown here. Equal entries are not always repeated.

How the values were obtained:
cortical neurons = assay: Calcium ion signalling (fura 2) in intact cortical neurons; assay type: cell-based, chick; settings: neurons loaded to 150 ± 20 pmoles per mg protein; 10 µM glutamate agonist, 30 minutes
Procedure: Metabotropic receptor function was examined in intact neurons by assaying lysosphingolipid modulation of calcium ion signalling. Approximately 1 X 10^6 cortical neurons were cultured on rectangular L-polylysine-coated coverslips and loaded with lysocerebroside or lysosphingomyelin to a level of 150 ± 20 pmoles per mg protein. The neurons were returned to complete Ham's high glucose medium/DMEM (1:1, vol:vol) and infiltrated with 5 µM fura 2/AM (Molecular Probes, Eugene, OR). Fura 2 is a calcium chelator whose fluorescence absorbance shifts to shorter wavelength upon calcium ion binding is measurable in intact cells. A change in intraneuronal calcium ion concentration was monitored as a change in the fluorescence spectrum.
The neurons were exposed to 10 µM glutamate agonist (for example, ibotenate) for 30 minutes at 37°C. The coverslips were then transferred to quartz cuvettes in medium containing 250 µM sulfinpyrazone to prevent fura 2/AM diffusion. Fluorescence ratios were recorded in a Perkin-Elmer LS-5 Fluorescence Spectrometer thermostatted at 37°C at excitation wavelengths of 340 and 380 nm, and emission measurement at 500 nm. Calcium ion signalling in agonist-stimulated neurons was 3.0 ± 0.2 arbitrary units for ibotenate-exposed neurons.

male F344 rats = assay: Behavioral analysis after ICV infusion (quisqualate excitotoxicity model); assay type: in vivo; settings: for effective dose (to prevent or reverse quisqualate effects): pilot testing, the higher doses appeared to be more reliable; for number of convulsions or spasms: pretreatment with Psychosine (125 nmoles) or Lysosphingomyelin (125 nmoles and 150 nmoles) ICV 30 minutes before quisqualate 225 nmoles, n = 6 per group, Fig. 8; for convulsant behavior, compound alone: psychosine at 125 nmoles, lysosphingomyelin at 125 nmoles and 150 nmoles, ICV without quisqualate; for behavioral and histological changes caused by quisqualate: rats pretreated with 125 nmoles of the lysosphingolipid; for BEHAVIORAL RESPONSE: 30 minutes prior to quisqualate
Procedure: (§1) The animals used in this experiment were male F344 rats (Charles River Breeding Laboratories). The animals were housed individually, exposed to a 12-hour light-dark cycle, and allowed free access to food and water. The animals weighed approximately 250 g at the beginning of each experiment and were weighed daily. In addition, the animals were habituated to handling before each experiment.
(§2) Before administering various compounds, the animals were anesthetized with sodium pentobarbital (50 mg/kg, i.p.) and positioned in a sterotaxic instrument. A 26 gauge cannula was inserted into the cerebral ventricle at the following co-ordinates: 1.0 mm posterior to bregma, 1.5 mm lateral to the midline, and 4.0 mm below the dorsal surface of the neocortex. Cannulas were capped and fixed in place with dental cement. One week after cannulation, 10 µl of each of the treatment drugs was infused, ICV (i.e. into the ventricals of the brain), via a micropump at a rate of 10 µl/min. For this procedure, the animals were lightly restrained and unanesthetized. Following administration of the compound, the infusion cannula remained in position for one minute, after which the permanent in situ cannula was capped.
(§3) The compounds administered were obtained from a commercial supplier (Sigma Chemical Co., St. Louis, MO) and dissolved in saline prior to injection. These compounds included quisqualate (injected at doses ranging from 100 nmole/10 µl to 1 µmole/10 µl), lysocerebroside, and lysophingomyelin (which were injected at doses of 25 nmoles/10 µl to 150 nmoles/10 µl).
Pilot studies identified several specific behavioral measures that could be used to indicate excessive activation of the metabotropic receptor (see Table 3). […] The experiments that follow were based on an analysis of these behaviors over a two hour period after administration of the compounds of the invention. Behavioral observation was carried out by two trained observers, who worked independently of one another and who were blind to the experimental groups. […] Frequency and duration means were computed by subtracting pre-infusion means from post-infusion means.
The experiment began one week after ICV cannulation. […] Following the baseline observation period, animals received the first of two ICV infusions (all infusions were of a 10 µl volume that was administered over a 1 minute period). For the first five groups listed above, this consisted of saline (10 µl/minute), for the following 3 groups the infusions were psychosine at 125 nmoles, lysosphingomyelin at 125 nmoles, or lysosphingomyelin at 150 nmoles, respectively. Thirty minutes later, all animals received the second infusion which, for the first five groups listed above, consisted of saline, quisqualate at 225 nmoles, psychosine at 125 nmoles, lysosphingomyelin at 125 nmoles, and lysosphingomyelin at 150 nmoles respectively. […] Following the second infusion animals were returned to their cages, and observed continuously over the subsequent 2 hours.

hippocampal neurons = assay: Histological analysis of brain (cresyl violet) seven days after ICV infusion; assay type: in vivo, rats; settings: pretreatment with psychosine 125 nmoles; quisqualate 225 nmoles ICV; Figs. 7A and 7B
Procedure: as §1, §2, §3
Seven days after the compounds were administered, animals were sacrificed by transcardial perfusion with neutralized, buffered 10% formalin-saline. Their brains were removed, post-fixed overnight in 10% formalin-saline, and sectioned along the coronal plane (into 50 µm thick sections) on a freezing microtome. The sections were stained with cresyl violet to determine the extent of cellular destruction. […]
Given that high concentrations of metabotropic receptors are located in the hippocampus, and that the hippocampus is particularly vulnerable to the effects of a variety of insults including ischemia and hypoxia, this region was examined for evidence of neuronal degeneration due to glutamate excitoxicity.

Compound	agonist-elicited calcium signalling in lysosphingolipid-loaded neurons (cortical neurons)	effective dose (to prevent or reverse quisqualate effects) (male F344 rats; ICV, rats)	sedation (male F344 rats; Lysosphingomyelin 150 nmoles ICV, rats)	behavioral or neurotoxic effects of the compounds (male F344 rats; doses as high as 125 nmoles per animal, ICV, rats)	number of convulsions or spasms (male F344 rats)	convulsant behavior, compound alone (male F344 rats)	duration of teeth chattering, akinesia and mobilization, compared with quisqualate alone (male F344 rats; quisqualate 225 nmoles and lysophingomyelin 150 nmoles ICV, Fig. 9)	behavioral and histological changes caused by quisqualate (male F344 rats; ICV)	BEHAVIORAL RESPONSE (male F344 rats; Psychosine 25 nmoles + Quisqualate 200 moles, ICV)	BEHAVIORAL RESPONSE (male F344 rats; Psychosine 50 nmoles + Quisqualate 200 moles, ICV)	BEHAVIORAL RESPONSE (male F344 rats; Psychosine 100 nmoles + Quisqualate 200 nmoles, ICV)	BEHAVIORAL RESPONSE (male F344 rats; Psychosine 100 nmoles + Quisqualate 250 nmoles, ICV)	BEHAVIORAL RESPONSE (male F344 rats; Psychosine 125 nmoles + Quisqualate 225 nmoles, ICV)	BEHAVIORAL RESPONSE (male F344 rats; Psychosine 150 nmoles + Quisqualate 250 nmoles, ICV)	BEHAVIORAL RESPONSE (male F344 rats; psychosine 125 moles + Quisqualate 200 moles, ICV)	neuronal loss (CA1 pyramidal neurons) caused by quisqualate (hippocampal neurons)
CCCCCCCCCCCCC/C=C/[C@@H](O)[C@@H](N)COP(=O)([O-])OCC[N+](C)(C)C [lysosphingomyelin, sphingosyl phosphorylcholine]	no calcium signalling measurably over controls	125 nmol and 150 nmol	mild sedation	no behavioral or neurotoxic effects were observed	significantly (p<01) attenuated	displayed no convulsant behavior	quisqualate alone spent significantly (p< .01) more time engaged in these behaviors	absent	–	–	–	–	–	–	–	–
CCCCCCCCCCCCC/C=C/[C@@H](O)[C@@H](N)CO[C@@H]1O[C@H](CO)[C@H](O)[C@H](O)[C@H]1O [psychosine]	no calcium signalling measurably over controls	125 nmol	–	–	significantly (p<01) attenuated	displayed no convulsant behavior	–	absent	Moderate convulsions, teeth chattering, akinesia and hyperactivity	Moderate convulsions, teeth chattering, akinesia and hyperactivity	Almost complete attenuation of Quisqualate response, some teeth chattering post-injection	Moderate convulsions, teeth chattering, akinesia. Quisqualate markedly reduced compared to typical Quisqualate response at this dose.	Complete attenuation of Quisqualate response	Almost complete attenuation of Quisqualate response	Complete attenuation of Quisqualate response	prevents the neuronal loss caused by quisqualate
